Laboratory results as given in PMC12388506, “Preclinical Evaluation of 2-Aminobenzothiazole Derivatives: In Silico, In Vitro, and Preliminary In Vivo Studies as Diabetic Treatments and Their Complications” (Molecules, 2025).

Assays:
[1] = molecular target: T1, ALR2 enzyme (Homo sapiens, UniProt P15121); experiment: ALR2 activity assay kit (ab273276), inhibition; assay type: biochemical;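 as to relative ALR2 inhibition: inhibition calculated from the rate of NADPH cofactor consumption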
T1 construct: purchased ab273276
Description: The obtained dose–response curve had concentrations of 10 μM, 5 μM, 500 nM, 50 nM, and 5 nM.

[2] = FRAP assay
Description: (§1) All synthesized compounds were evaluated at 30 μM, 50 μM, 70 μM, 90 μM, and 110 μM under two of the most widely used methods in research to directly measure the antioxidant and anti-radical intrinsic capacity, FRAP, and ABTS assay, which were validated by a dose–response curve of 5-ASA as a reference. In the same way, these tests were carried out in triplicate using an assay kit (from Pharmaceutical and Biotechnological Innovation-Services) according to the manufacturer’s instructions.

[3] = ABTS assay
Description: as §1

[4] = system: male Wistar rat; experiment: Acute oral toxicity, Up and Down procedure (OECD 425); assay type: in vivo; set-up: Heart weight / IWA (initial weight of animals) / FWA (final weight of animals) / Spleen weight / Liver weight / Intestine weight / Stomach weight / Kidney weight: unit not given here; conditions: for FWA (final weight of animals): after 14 days; for Heart weight / Intestine weight / Kidney weight / Liver weight / Spleen weight / Stomach weight: necropsy; for toxicity category (OECD): maximum dose 1250 mg/Kg oral
Description: All synthesized compounds (8c, 8d, and 12d as a racemic mixture) were suspended in 2% Tween 80 in water and administered orally by an esophageal cannula following the “Up and Down” methodology. Nevertheless, compounds could not be solubilized in the desired volume to complete the highest dose (1750 mg/Kg), so the toxicity test was performed with a maximum dose of 1250 mg/Kg. Even so, the values obtained indicate that these compounds are classified within toxicity category 4 according to the guidelines established by the Organization for Economic Co-operation and Development (OECD).
The “Up and Down” procedure of OECD Guideline 425 was used to estimate the LD50 value of synthesized compounds. Briefly, a dose of 175 mg/Kg was administered to a male Wistar rat, which was monitored continuously for 48 h. As the animal survived, a second animal received a dose of 550 mg/Kg, and, as it survived, a third animal received an increasing dose of 1750 mg/Kg. Finally, two other rats were administered the same dose. All animals were kept under observation for 14 days, and 24 h later, they were taken to the humane endpoint for macroscopic examination of organs and tissues. Finally, the LD50 value of the compounds was estimated to determine their degree of toxicity and classified based on the GHS of Classification and Labeling of Chemicals.

[5] = molecular target: T1, ALR2 enzyme; experiment: ALR2 activity assay kit (ab273276), inhibition; assay type: biochemical; conditions: Inhibitor concentration
[6] = Inhibitor concentration 5000 nm
[7] = Inhibitor concentration 10000 nm

| SMILES | relative ALR2 inhibition ([1]; Inhibitor concentration 5 nm) | relative ALR2 inhibition ([1]; Inhibitor concentration 50 nm) | relative ALR2 inhibition ([1]; Inhibitor concentration 500 nm) | relative ALR2 inhibition [1, 6] | relative ALR2 inhibition [1, 7] | Percentage reduction of ferric ion to ferrous ion (FRAP) ([2]; 30 µM) | Percentage reduction of ferric ion to ferrous ion (FRAP) ([2]; 50 µM) | Percentage reduction of ferric ion to ferrous ion (FRAP) ([2]; 70 µM) | Percentage reduction of ferric ion to ferrous ion (FRAP) ([2]; 90 µM) | Percentage reduction of radical cation ABTS ([3]; 30 µM) | Percentage reduction of radical cation ABTS ([3]; 50 µM) | Percentage reduction of radical cation ABTS ([3]; 70 µM) | Percentage reduction of radical cation ABTS ([3]; 90 µM) | Percentage reduction of radical cation ABTS ([3]; 110 µM) | FWA (final weight of animals) ([4]; 1250 mg/Kg oral, mean ± SEM) | Heart weight ([4]; 1250 mg/Kg oral, mean ± SEM) | Intestine weight ([4]; 1250 mg/Kg oral, mean ± SEM) | Kidney weight ([4]; 1250 mg/Kg oral, mean ± SEM) | Liver weight ([4]; 1250 mg/Kg oral, mean ± SEM) | relative ALR2 inhibition [5] | further results |
| --- | --- | --- | --- | --- | --- | --- | --- | --- | --- | --- | --- | --- | --- | --- | --- | --- | --- | --- | --- | --- | --- |
| CNC(=O)C(Cc1ccccc1)N/C(=N\c1nc2ccccc2s1)SC (racemic) [12d, Methyl (RS, E)-N’-(benzo[d]thiazol-2-yl)-N-(1-(methylamino)-1-oxo-3-phenylpropan-2-yl)carbamimidothioate] | 29.534% | 32.532% | 33.993% | 48.448% | 86.455% | 0.19% | 0.20% | 0.18% | 0.20% | -3.4% | -3.7% | -2.3% | -3.1% | -1.9% | 309.67 ± 4.67 | 1.23 ±0.13 | 29.10 ± 0.50 | 2.87 ± 0.067 | 19.33 ± 0.03 | 32.814% | IWA (initial weight of animals) ([4]; 1250 mg/Kg oral, mean ± SEM): 208.47 ± 6.47; Spleen weight ([4]; 1250 mg/Kg oral, mean ± SEM): 0.83 ± 0.03; Stomach weight ([4]; 1250 mg/Kg oral, mean ± SEM): 1.53 ± 0.07; toxicity category (OECD) [4]: 4 |
| COC(=O)[C@@H](N/C(=N\c1nc2ccccc2s1)SC)c1ccccc1 [8c, Methyl (S,E)-2-(((benzo[d]thiazol-2-ylimino)(methylthio)methyl)amino)-2-phenylacetate] | 82.945% | 85.158% | 68.371% | 53.000% |  | 13.2% | 14.4% | 15.5% | 19.6% | -3.5% | -3.9% | -3.8% | -2.9% | -2.8% | 204.37 ± 1.47 | 1.07 ± 0.17 | 30.20 ± 1.50 | 2.57 ± 0.27 | 18.87 ± 1.47 | 90.000% | concentrations at which ALR2 was inhibited [1]: below 10 µM; concentration dependence of ALR2 inhibition (IC50 not calculable) ([1]; 10 μM to 5 nM): did not show a concentration-dependent response; Percentage reduction of ferric ion to ferrous ion (FRAP) ([2]; 110 µM): 20.2%; Spleen weight ([4]; 1250 mg/Kg oral, mean ± SEM): 0.73 ± 0.03; Stomach weight ([4]; 1250 mg/Kg oral, mean ± SEM): 1.57 ± 0.07; toxicity category (OECD) [4]: 4 |
| CC(/C=C1\SC(=S)N(CC(=O)O)C1=O)=C\c1ccccc1 [Epa, epalrestat, reference compound] | 5.000% | 5.288% | 12.513% | 58.372% | 100.000% |  |  |  |  |  |  |  |  |  |  |  |  |  |  | 3.000% |  |
